≈ marks a conversion by molar mass, not a printed value.
What follows are compounds tested on Nucleic Acid (assay: Compound was evaluated for 50% inhibitory dose against oncornaviral DNA polymerase activity of moloney murine leukemia virus).
Assay type: functional

With `N=C(N)c1ccc(/N=N/Nc2ccc(C(=N)N)cc2)cc1` the ID50 was 11 µg/mL (≈ 39.1 µM).

These compounds were tested against Gag-Pol polyprotein (Moloney murine leukemia virus isolate Shinnick) (UniProt P03355).
Description: Inhibitory dose against oncornaviral DNA polymerase activity of moloney murine leukemia virus

`CCN(CC)CCOc1ccc2c(c1)C(=O)c1cc(OCCN(CC)CC)ccc1-2` and `N=C(N)c1ccc(OCCCCCOc2ccc(C(=N)N)cc2)cc1` are within 1.5-fold of each other in ID50: 75 µg/mL (≈ 183 µM) for the first, 100 µg/mL (≈ 294 µM) for the second.

`N=C(N)c1cccc(-c2cc3ccc(C(=N)N)cc3s2)c1` and `N=C(N)c1cccc(-c2cc3cc(C(=N)N)ccc3s2)c1` are within 1.5-fold of each other in ID50: 8 µg/mL (≈ 27.2 µM) for the first, 6 µg/mL (≈ 20.4 µM) for the second.

Going from `N=C(N)c1ccc(C2Cc3cc(C(=N)N)ccc3S2(=O)=O)cc1` (centres undefined) to `N=C(N)c1ccc(-c2cc3cc(C(=N)N)ccc3s2)cc1`, the ID50 falls from 90 µg/mL (≈ 274 µM) to 5 µg/mL (≈ 17 µM) (18-fold).

First: N=C(N)c1ccc(-c2sc3ccc(C(=N)N)cc3c2N)cc1
Second: N=C(N)c1ccc(-c2[nH]c3cc(C(=N)N)ccc3c2N)cc1
The ID50 of the first is 1.5-fold lower: 8 µg/mL (≈ 25.9 µM) for the first, 12 µg/mL (≈ 41 µM) for the second.

Compared with `N=C(N)c1ccc(/C=C/C=C/c2cc3cc(C(=N)N)ccc3o2)cc1`, `N=C(N)c1ccc(/C=C/C=C/C=C/c2cc3cc(C(=N)N)ccc3o2)cc1` is 1.8-fold higher in ID50: 0.9 µg/mL (≈ 2.72 µM) for the first, 1.6 µg/mL (≈ 4.49 µM) for the second.

Going from `C(=C\c1cc2cc(C3=NCCN3)ccc2o1)/c1ccc(C2=NCCN2)cc1` to `C(/C=C/c1cc2cc(C3=NCCN3)ccc2o1)=C\c1ccc(C2=NCCN2)cc1`, the ID50 falls from 6 µg/mL (≈ 16.8 µM) to 4 µg/mL (≈ 10.5 µM) (1.5-fold).

`N=C(N)c1ccc(N/N=C/c2cc3cc(C(=N)N)ccc3o2)cc1` and `N=C(N)c1ccc(/C=C/c2cc3cc(C(=N)N)ccc3o2)cc1` are within 1.5-fold of each other in ID50: 7.5 µg/mL (≈ 23.4 µM) for the first, 8 µg/mL (≈ 26.3 µM) for the second.

`N=C(N)c1ccc(-c2ccc(-c3ccc(C(=N)N)cc3)o2)cc1` and `N=C(N)c1ccc(-c2ccc(-c3ccc(C(=N)N)cc3)[nH]2)cc1` are within 1.5-fold of each other in ID50: 6 µg/mL (≈ 19.7 µM) for the first, 6.5 µg/mL (≈ 21.4 µM) for the second.

Going from `N=C(N)Nc1ccc(-c2cc3ccc(NC(=N)N)cc3s2)cc1` to `N=C(N)Nc1ccc(-c2cc3cc(NC(=N)N)ccc3s2)cc1`, the ID50 rises from 6 µg/mL (≈ 18.5 µM) to 11 µg/mL (≈ 33.9 µM) (1.8-fold).

Compared with `CC[n+]1c(-c2ccccc2)c2cc(N)ccc2c2ccc(N)cc21`, `N=C(N)c1ccc2oc(-c3ccc(N)cc3)cc2c1` is 220-fold higher in ID50: 1.2 µg/mL for the first, 270 µg/mL (≈ 1070 µM) for the second.

`N=C(N)Nc1ccc(-c2cc3cc(NC(=N)N)ccc3o2)cc1` and `N=C(N)c1ccc(NC(=O)c2cc3cc(C(=N)N)ccc3o2)cc1` are within 1.5-fold of each other in ID50: 8 µg/mL (≈ 25.9 µM) for the first, 7.5 µg/mL (≈ 23.3 µM) for the second.

`C(/C=C/c1cc2cc(C3=NCCN3)ccc2o1)=C\c1cc2cc(C3=NCCN3)ccc2o1` and `C(=C\c1cc2cc(C3=NCCN3)ccc2o1)/c1cc2cc(C3=NCCN3)ccc2o1` are within 1.5-fold of each other in ID50: 1 µg/mL (≈ 2.37 µM) for the first, 1.1 µg/mL (≈ 2.77 µM) for the second.

`CC(Cc1cc2cc(C(=N)N)ccc2o1)c1cc2cc(C(=N)N)ccc2o1` (centres undefined) and `N=C(N)c1ccc2oc(CCc3cc4cc(C(=N)N)ccc4o3)cc2c1` are within 1.5-fold of each other in ID50: 15 µg/mL (≈ 41.6 µM) for the first, 12 µg/mL (≈ 34.6 µM) for the second.

`N=C(N)c1ccc2oc(/C=C/c3cc4ccc(C(=N)N)cc4[nH]3)cc2c1` and `N=C(N)c1ccc2[nH]c(/C=C/c3cc4cc(C(=N)N)ccc4o3)cc2c1` are within 1.5-fold of each other in ID50: 1.1 µg/mL (≈ 3.2 µM) for the first, 1.4 µg/mL (≈ 4.08 µM) for the second.

First: N=C(N)c1ccc2[nH]c(/C=C/c3nc4cc(C(=N)N)ccc4[nH]3)nc2c1
Second: N=C(N)c1ccc2sc(/C=C/c3cc4cc(C(=N)N)ccc4s3)cc2c1
The ID50 of the first is 9.1-fold higher: 100 µg/mL (≈ 290 µM) for the first, 11 µg/mL (≈ 29.2 µM) for the second.

Compared with `C(=C\c1cc2cc(C3=NCCN3)ccc2o1)/c1ccc(Oc2ccc(C3=NCCN3)cc2)cc1`, `C(=C\c1cc2ccc(C3=NCCN3)cc2[nH]1)/c1ccc(Oc2ccc(C3=NCCN3)cc2)cc1` is 5.6-fold lower in ID50: 9 µg/mL (≈ 20.1 µM) for the first, 1.6 µg/mL (≈ 3.58 µM) for the second.

Going from `N=C(N)c1ccc(CCc2cc3cc(C(=N)N)ccc3o2)cc1` to `C/C(=C\c1cc2cc(C(=N)N)ccc2o1)c1ccc(C(=N)N)cc1`, the ID50 falls from 120 µg/mL (≈ 392 µM) to 4 µg/mL (≈ 12.6 µM) (30-fold).

Compared with `N=C(N)c1ccc2oc(C(=O)Nc3ccc(C4=NCCN4)cc3)cc2c1`, `N=C(N)c1ccc(N/N=N/c2ccc(-c3cc4cc(C(=N)N)ccc4o3)cc2)cc1` is 7.7-fold lower in ID50: 10 µg/mL (≈ 28.8 µM) for the first, 1.3 µg/mL (≈ 3.27 µM) for the second.

Compared with `N=C(N)c1ccc2cc(C(=N)N)[nH]c2c1`, `N=C(N)c1cccc(-c2cc3ccc(C(=N)N)cc3[nH]2)c1` is 8.8-fold lower in ID50: 70 µg/mL (≈ 348 µM) for the first, 8 µg/mL (≈ 28.8 µM) for the second.

`N=C(N)c1ccc2oc(/C=C/c3cc4ccc(C(=N)N)cc4o3)cc2c1` and `N=C(N)c1ccc2cc(/C=C/c3cc4ccc(C(=N)N)cc4o3)oc2c1` are within 1.5-fold of each other in ID50: 1.2 µg/mL (≈ 3.48 µM) for the first, 1.6 µg/mL (≈ 4.65 µM) for the second.

Going from `c1cc(Oc2ccc(-c3cc4ccc(C5=NCCN5)cc4[nH]3)cc2)cc(C2=NCCN2)c1` to `c1cc(C2=NCCN2)ccc1Oc1ccc(-c2cc3ccc(C4=NCCN4)cc3[nH]2)cc1`, the ID50 falls from 3 µg/mL (≈ 7.12 µM) to 1.4 µg/mL (≈ 3.32 µM) (2.1-fold).

`N=C(N)c1ccc2oc(/C=C/c3cc4cc(C(=N)N)ccc4s3)cc2c1` and `N=C(N)c1ccc2oc(/C=C/C=C/c3cc4cc(C(=N)N)ccc4o3)cc2c1` are within 1.5-fold of each other in ID50: 4 µg/mL (≈ 11.1 µM) for the first, 3 µg/mL (≈ 8.1 µM) for the second.

Going from `N=C(N)N/N=C/c1ccc2cc(-c3ccc(/C=N/N=C(N)N)cc3)sc2c1` to `N=C(N)c1ccc(-c2cc3ccc(C(=N)N)cc3s2)cc1`, the ID50 rises from 2 µg/mL (≈ 5.28 µM) to 4 µg/mL (≈ 13.6 µM) (2-fold).

Going from `N=C(N)c1ccc2c(c1)[nH]c1c3cc(C(=N)N)ccc3sc21` to `N=C(N)c1cccc(-c2cc3cc(C(=N)N)ccc3[nH]2)c1`, the ID50 rises from 1.2 µg/mL (≈ 3.9 µM) to 4 µg/mL (≈ 14.4 µM) (3.3-fold).

Compared with `O=C(Nc1ccc(C2=NCCN2)cc1)c1ccc(C(=O)Nc2ccc(C3=NCCN3)cc2)cc1`, `c1cc(-c2cc3ccc(C4=NCCN4)cc3s2)ccc1C1=NCCN1` is 170-fold lower in ID50: 200 µg/mL (≈ 442 µM) for the first, 1.2 µg/mL (≈ 3.46 µM) for the second.

Going from `C/C(=C\c1cc2cc(C(=N)N)ccc2o1)c1cc2cc(C(=N)N)ccc2o1` to `N=C(N)c1ccc2oc(/C=C/C=C/C=C/c3cc4cc(C(=N)N)ccc4o3)cc2c1`, the ID50 falls from 14 µg/mL (≈ 39.1 µM) to 1.6 µg/mL (≈ 4.04 µM) (8.8-fold).

Going from `CN(C)/C=N/c1ccc(-c2cc3cc(/N=C/N(C)C)ccc3o2)cc1` to `N=C(N)c1ccc2[nH]c(-c3cc4cc(C(=N)N)ccc4o3)cc2c1`, the ID50 falls from 40 µg/mL (≈ 120 µM) to 0.9 µg/mL (≈ 2.84 µM) (44-fold).

Going from `N=C(N)c1ccc(-c2nnc(-c3ccc(C(=N)N)cc3)o2)cc1` to `N=C(N)c1ccc(-c2c[nH]c(-c3ccc(C(=N)N)cc3)n2)cc1`, the ID50 falls from 28 µg/mL (≈ 91.4 µM) to 10 µg/mL (≈ 32.9 µM) (2.8-fold).

Going from `N=C(N)c1ccc(Oc2ccc(-c3cc4ccc(C(=N)N)cc4[nH]3)cc2)cc1` to `N=C(N)c1cccc(Oc2ccc(-c3cc4ccc(C(=N)N)cc4[nH]3)cc2)c1`, the ID50 falls from 250 µg/mL (≈ 677 µM) to 6 µg/mL (≈ 16.2 µM) (42-fold).

First: c1cc(-c2cc3ccc(C4=NCCN4)cc3[nH]2)ccc1C1=NCCN1
Second: c1cc(-c2cc3cc(C4=NCCN4)ccc3s2)ccc1C1=NCCN1
The ID50 of the first is 2.1-fold higher: 6 µg/mL (≈ 18.2 µM) for the first, 2.8 µg/mL (≈ 8.08 µM) for the second.

First: N=C(N)c1ccc(-c2ccc(-c3ccc(C(=N)N)cc3)s2)cc1
Second: N=C(N)c1ccc(/C=C/c2ccc(C(=N)N)cc2)cc1
The ID50 of the first is 10-fold lower: 1.2 µg/mL (≈ 3.75 µM) for the first, 12 µg/mL (≈ 45.4 µM) for the second.

Compared with `N=C(N)c1ccc(Oc2ccc(/C=C/c3cc4ccc(C(=N)N)cc4[nH]3)cc2)cc1`, `N=C(N)c1ccc(/C=C/c2cc3ccc(C(=N)N)cc3[nH]2)cc1` is 4.3-fold higher in ID50: 1.4 µg/mL (≈ 3.54 µM) for the first, 6 µg/mL (≈ 19.8 µM) for the second.

First: Cc1c(/C=C/c2oc3ccc(C(=N)N)cc3c2C)oc2ccc(C(=N)N)cc12
Second: N=C(N)c1ccc2oc(-c3c[nH]c(-c4cc5cc(C(=N)N)ccc5o4)n3)cc2c1
The ID50 of the first is 4-fold higher: 8 µg/mL (≈ 21.5 µM) for the first, 2 µg/mL (≈ 5.2 µM) for the second.

Going from `N=C(N)c1ccc(-c2cc3ccc(C(=N)N)cc3[nH]2)cc1` to `N=C(N)c1ccc(Oc2ccc(/C=C/c3cc4cc(C(=N)N)ccc4o3)cc2)cc1`, the ID50 rises from 5 µg/mL (≈ 18 µM) to 14 µg/mL (≈ 35.3 µM) (2.8-fold).

From ChEMBL document CHEMBL1121476, “Diaryl amidine derivatives as oncornaviral DNA polymerase inhibitors” (J Med Chem, 1980)
